In ChEMBL document CHEMBL5726656, “N-(phenylsulfonyl)benzamides and related compounds as BCL-2 inhibitors” (2019):
pIC50: −log10 of the molar value.

Molecular target: Apoptosis regulator Bcl-2 (Homo sapiens, UniProt P10415)
Test: FP values were measured as described above.

Chain of Apoptosis regulator Bcl-2 (P10415 whole entry): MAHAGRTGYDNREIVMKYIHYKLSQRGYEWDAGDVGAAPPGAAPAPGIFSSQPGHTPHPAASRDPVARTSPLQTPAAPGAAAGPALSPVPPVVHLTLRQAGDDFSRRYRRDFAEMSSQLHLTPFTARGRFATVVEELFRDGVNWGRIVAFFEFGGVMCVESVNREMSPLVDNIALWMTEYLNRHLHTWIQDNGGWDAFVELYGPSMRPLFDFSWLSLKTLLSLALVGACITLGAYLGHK

## O=C(NS(=O)(=O)c1cc([N+](=O)[O-])c2cnn(CC3CCOCC3)c2c1)c1ccc(N2CCN(CC3=C(c4ccc(Cl)cc4)CC4(CCC4)CC3)CC2)cc1Oc1cnc2[nH]ccc2c1
  pIC50: 8.80
